Like-named read-outs stand apart in the source and are kept apart here.
Key:
[1] = tested on: LEW responder splenocytes (lymphocyte proliferation); test: Mixed lymphocyte reaction (MLR) with spleen cells of treated Lewis rats; format: cell-based, rat
Method: (§1) Animals: 8-9 weeks-old Lewis and Brown Norway male rats are obtained from Charles River Laboratories. General procedures for animal care and housing are in accordance with the National Research Council (NRC) Guide for the Care and Use of Laboratory Animals (1996) and the Animal Welfare Standards incorporated in 9 CFR Part 3, 1991.
(§2) Treatment: Lewis rats are treated with different single doses of LNS 0694 i.p. 30 minutes prior to single i.v. injections of tacrolimus at a concentration of 1 mg/kg as described in the table below.
(§3) Spleens are collected at 4 hr after administration of FK506 for use in the in vitro mixed lymphocyte reaction (MLR) and Con A assays. In addition to treated Lewis rats, spleens are collected from 5 Brown Norway rats (not treated) which are used for the in vitro assay.
Mixed lymphocyte reactions: A single cell suspension of the spleen of each rat on test (LEW, responder) is prepared with a Dounce homogenizer and wash-medium. The cell suspension is depleted of red blood cells (treatment with NH4CL/Tris buffer) and washed twice with wash medium before resuspending in complete medium (CM; RPMI 1640 with 5% heat-inactivated (30 minutes at 56° C.) normal rat serum (from Lewis rats), 2 mM GlutaMAX, 100 U/ml penicillin and 100 μg/ml streptomycin mixture, and 55 μM 2-mercaptoethanol). A single cell suspension of splenocytes from five Brown Norway rats (BN, stimulators) is prepared with the same method. The BN splenocytes are pooled and irradiated with 1,500-2,000 rad (cesium source) before use.
Varying numbers of responder cells are mixed with a constant number of stimulators (105) in 96-well, U-bottom cell culture plates to give a final responder:stimulator (R:S) ratio of 10:1, 5:1, 1:1 and 0.5:1 in 200 μl CM. Control wells for each cell suspension contained 10^5 responders alone in medium and 105 pooled, irradiated stimulators alone in medium (separate wells). For a positive proliferative response, each responder (10^5) is treated with 2.5 μg/ml Con A. […]
The results of the MLR assays [thymidine incorporation as counts per minute (CPM)] are expressed as mean±SD.

[2] = tested on: LEW responder splenocytes activated with Con A; test: Con A stimulated proliferation of spleen cells of treated Lewis rats; format: cell-based, rat; conditions: LNS 0694 i.p. before FK 506 1 mg/kg i.v.
Method: as §2, §3
Varying numbers of responder cells are mixed with a constant number of stimulators (105) in 96-well, U-bottom cell culture plates to give a final responder:stimulator (R:S) ratio of 10:1, 5:1, 1:1 and 0.5:1 in 200 μl CM. Control wells for each cell suspension contained 10^5 responders alone in medium and 105 pooled, irradiated stimulators alone in medium (separate wells). For a positive proliferative response, each responder (10^5) is treated with 2.5 μg/ml Con A.
Cultures are incubated at 37±° 1 C. for 72±2 hours in 5±1% CO2 humidified air. Each well is pulsed with 1 μCi tritiated thymidine for 18±2 hours before automatic harvesting and analysis in a liquid scintillation counter.

[3] = Pharmacokinetics of FK 506 in male Lewis rats, whole blood drug levels; format: in vivo; conditions: FK 506 1 mg/kg i.v. with i.p. LNS 0694 at different doses
Method: as §1, with “housing is” for “housing are”
Treatment: Lewis rats are treated as described in example 3. Subsets of 3 Lewis rats per group are used for blood sampling at each time point (Groups 2-5) as described in the table below.
Plasma Blood Sample Collection: Whole blood is collected from the retro-orbital sinus under 60:40 CO2:O2 anesthesia using EDTA as the anticoagulant. Sample collection is performed at 9 time points: 5, 15, and 30 min and 1, 2, 4, 6, 8, & 24 hr after administration of FK 506. Three samples are collected from each rat per group (Groups 2-5). The first 2 samples are collected under anesthesia, after which the animal regains consciousness and is retained until the next collection interval. […]
Drug levels are determined in collected whole blood samples using a bioanalytical method developed to detect parent drug levels.
Results: The pharmacokinetics parameters of FK 506 are determined in male Lewis rats after 1 mg/kg i.v. administration alone or in combination with i.p, administration of different doses of LNS 0694 (See FIG. 15).

rats = format: in vivo
Method: Animals: 8-9 weeks-old rats are used. General procedures for animal care and housing are in accordance with the National Research Council (NRC) Guide for the Care and Use of Laboratory Animals (1996) and the Animal Welfare Standards incorporated in 9 CFR Part 3, 1991.
Treatment: Rats are treated i.v with FK506 and i.p. with Quercetin. Rats receive daily administrations containing either 0.5 mg/kg or 2 mg/kg of FK506 approximately one hour after the start of the light cycle. Rats are treated 30 minutes prior to FK506 treatment with quercetin at three different concentrations, 10 mg/kg, 25 mg/kg or 200 mg/kg. Subsets of 5 rats per group are used for blood sampling at each time point. Blood is collected for glucose measurement on days 0, 5, 9, and 14.

mouse spleen cells [4] = test: In vitro Con A assay on spleen cells; format: cell-based; conditions: for response of spleen cells to Con A (proliferation): high ([…]10^6 cells/well) and low (8×10^5 cells/well) cell concentration
Method: as §1, with “housing is” for “housing are”
Spleens are collected for use in in vitro Con A and LPS assays.
Spleen cells are treated with Con A in the presence of vehicle, tacrolimus, quercetin or two different concentrations of tacrolimus (10^−8.2 and 10^−8.5 M) and increasing doses of quercetin at a high cell concentration (FIG. 13) or at a low cell concentration (FIG. 14). […] There is no significance difference between the effect of quercetin on tacrolimus induced cell suppression in vitro at the different concentrations used for quercetin. The same results are observed in cultures with low cell concentration (FIG. 14).

mouse spleen cells [5] = test: In vitro LPS assay on spleen cells; format: cell-based; conditions: high ([…]10^6 cells/well) and low (8×10^5 cells/well) cell concentration
[6] = tested on: heart transplant patients; conditions: target range 5-15 ng/mL, tacrolimus treatment arm, European study; cited from earlier work
islet = conditions: 0.01 μmol/liter, after 7-d incubation; cited from earlier work
[7] = tested on: renal transplant recipients; conditions: cited from earlier work
murine or human T cells = conditions: disrupting calcium signaling events that lead to lymphokine production; cited from earlier work
[8] = tested on: liver transplant patients; conditions: two liver transplant trials; 514 patients tacrolimus and steroids, 515 patients CBIR; cited from earlier work
[9] = Sulfobutylether-7-β-cyclodextrin quercetin aqueous composition: concentration and storage stability; format: physicochemical; conditions: 10 mg/ml in water with sulfobutylether-7-β-cyclodextrin
Method: The flask is placed in an ice bath. When all of the Captisol is dissolved, 1.24 g of quercetin (Micron Technologies) (equivalent to about 1 g of anhydrous quercetin) is added with stirring. Into the flask, 12 ml of 1 N sodium hydroxide is added over about 5 to 10 minutes. […] Into the flask is then added 10.5 ml of hydrochloric acid over 5 to 10 minutes at a slow enough rate to avoid precipitation. During the addition of the sodium hydroxide and the hydrochloric acid, the temperature is maintained at less than 20° C. DI water is then added to give total volume of 100 ml. This procedure results in a sulfobutylether-7-β-cyclodextrin-quercetin aqueous composition at a concentration of 10 mg/ml (33 mM) in quercetin at a pH of about 7.8.

[10] = Solubility of quercetin with sulfobutylether-7-β-cyclodextrin and meglumine; format: physicochemical; conditions: Captisol 30% w/v, Meglumine 44 mM, room temperature, about 10 minutes, excess solids removed
Method: Sulfobutylether-7-β-cyclodextrin (Captisol™) is dissolved in water to form a solution at 30% w/v. To the Captisol solution is added Meglumine at a concentration of 44 mM and […] at a concentration of about 20 mg/ml. The solution is stirred at room temperature for about 10 minutes. The solution is separated from any excess solids (e.g. by filtration). The concentration of quercetin in the solution is about 9.2 mg/mL.

[11] = cited from earlier work
[12] = quercetin or a quercetin derivative; cited from earlier work

Question: Which results are given for `O=c1c(O)c(-c2ccc(O)c(O)c2)oc2cc(O)cc(O)c12` [LNS 0694]?
Answer: FK 506 inhibitory effect on lymphocyte proliferation in MLR ([1]; LNS 0694 50, 150, 300 mg/kg i.p. 30 minutes before FK 506 1 mg/kg i.v.): increases FK 506 inhibitory effect in a dose-dependent manner; FK 506 inhibitory effect on lymphocyte proliferation after Con A [2]: increases FK 506 inhibitory effect; peripheral bioavailability of FK506 [3]: increases the peripheral bioavailability of FK506 in a dose dependent manner

Question: What does the source list for `C=CC[C@@H]1/C=C(\C)C[C@H](C)C[C@H](OC)[C@H]2O[C@@](O)(C(=O)C(=O)N3CCCC[C@H]3C(=O)O[C@H](/C(C)=C/[C@@H]3CC[C@@H](O)[C@H](OC)C3)[C@H](C)[C@@H](O)CC1=O)[C@H](C)C[C@@H]2OC` (relative stereo) [tacrolimus, [3S-[3R[E(1S*,3S*,4S*)], 4S*,5R*,8S*,9E,12R*,14R*,15S*,16R*,18S*,19S*,26aR*]]-,6,8,11,12,13,14,15,16,17,18,19,24,25,26,26a-hexadecahydro-5,19-dihydroxy-3-[2-(4-hydroxy-3-methoxycyclohexyl)-1-methylethenyl]-14,16-dimethoxy-4,10,12,18-tetramethyl-8-(2-propenyl)-15,19-epoxy-3H-pyrido[2,1-c][1,4]oxaazacyclotricosine-1,7,20,21(4H,23H)-tetrone, monohydrate]?
Answer: percent change of glucose blood level (rats; rat, in vivo, 0.5 mg/kg): greater increase; lymphocyte proliferation in MLR (thymidine incorporation) ([1]; FK 506 1 mg/kg i.v., spleens collected at 4 hr): inhibited; inhibitory effect on MLR by R:S ratio ([1]; FK 506 1 mg/kg i.v., R:S ratios 0.5:1, 1:1, 5:1): stronger inhibitory effect at lower R:S ratios; response of spleen cells to Con A (proliferation) (mouse spleen cells [4]): inhibits Con A-induced proliferation in a dose dependent manner; response of spleen cells to LPS (proliferation) (mouse spleen cells [5]): inhibits LPS-induced proliferation in a dose dependent manner; patients with trough concentrations within the pre-defined target range [6]: 74-86%; glucose-stimulated insulin secretion, of the control value (islet): 32±5%; incidence of posttransplant diabetes mellitus (PTDM) ([7]; Japan): 31.4%; incidence of posttransplant diabetes mellitus (PTDM) ([7]; western countries): 10-30%; potency relative to CsA (murine or human T cells): 50-100 fold; proportion of patients reporting more than one adverse event [8]: 99.8%

Question: Which results are given for `O=c1c(O)c(-c2ccc(O)c(O)c2)oc2cc(O)cc(O)c12` [quercetin]?
Answer: FK506 induced hyperglycemia (rats; FK506 0.5 mg/kg i.v. daily, quercetin i.p. 30 minutes before, FIG. 2): decreases; increase of glucose blood levels by FK506 (rats; FK506 0.5 mg/kg, quercetin 10, 25 and 200 mg/kg): reduced; increase of blood glucose (percent change) (rats; FK506 2 mg/kg + quercetin 10 mg/kg, day 9): 60%; increase of blood glucose (percent change) (rats; FK506 2 mg/kg + quercetin 25 mg/kg, day 9): 90%; percent change of blood glucose (rats; FK506 2 mg/kg + quercetin 200 mg/kg, day 9): reduced to the levels similar to rats treated with vehicle alone; FK506 induced hyperglycemia (rats; FK506 2 mg/kg i.v. daily, quercetin i.p. 30 minutes before, FIG. 1): decreases; increase in glucose blood levels by FK506 (rats; FK506 2 mg/kg, day 5, quercetin 10, 25 and 200 mg/kg): reduced; increase of glucose blood levels by FK506 (rats; FK506 2 mg/kg, day 9, quercetin 10, 25 and 200 mg/kg): reduced; FK506 induced hyperglycemia (rats; conclusion of Example 4, both FK506 doses): decreases; tacrolimus induced cell suppression in vitro (mouse spleen cells [4]; Con A, tacrolimus 10^−8.2 and 10^−8.5 M with increasing doses of quercetin, high cell concentration): does not impair; effect of tacrolimus on cells (mouse spleen cells [4]; conclusion of Example 6): does not alter; response of spleen cells to Con A (proliferation) (mouse spleen cells [4]): no significant effect; response of spleen cells to LPS (proliferation) (mouse spleen cells [5]): no significant effect; stability of solution to precipitation [9]: stable for more than two weeks without precipitation; concentration of quercetin in the solution [10]: about 9.2 mg/mL; stability in solution ([11]; above pH 5): degradation; stability in solution ([11]; below pH 3): stable; serum half-life [12]: 19 to 25 h

— patent US20090325906A1, “Methods and compositions for therapeutic treatment” (priority 2008, published 2009)
